Format in all cases: in vivo, human
One assay deals with HIV-1. As to the kind of experiment: Phase 2 study: plasma HIV-1 viral load decay (Roche COBAS TaqMan HIV-1). The conditions noted are these: 200 mg BIT225 QD + ART vs placebo QD + ART, 12 weeks, treatment-naive HIV-1 patients. How it is done: (§1) A Phase 2, multi-centre, randomized, placebo-controlled, double-blind study of BIT225 in combination with ART (Atripla—efavirenz/emtricitabine/tenofovir DF) was undertaken in patients with HIV-1 infection that were treatment-naive. Patients were randomized into two groups on a 2:1 basis, with one group receiving BIT225 (100 mg QD; 6 patients: placebo; 3 patients), and one group receiving BIT225 (200 mg QD, 18 patients: placebo; 9 patients), with a total of 36 patients enrolled in the trial. The 100 mg BIT225 group was primarily included for detailed PK analyses due to limitations on the quantity of blood that could be drawn at time points coinciding with analyses of viral load decay, which were limited to the 200 mg cohort. All subjects received the standard dose of ART in addition to 12 weeks BIT225 or placebo study treatment. At the conclusion of the trial, patients remained on ART as per standard treatment protocols. HIV-1-infected subjects, males and females, aged 18 to 65 years inclusive, who were naive to ART were recruited. Individuals had HIV-1 RNA>5,000 copies/mL and CD4^+ T cell count>100 cells/mm^3.
(§2) There were two treatment cohorts. The first cohort received 100 mg capsule of BIT225 or placebo QD with ART for 12 weeks. […]
HIV-1 plasma viral load was determined in real time by Roche COBAS TaqMan HIV-1 currently approved version (Roche Diagnostics).

Assay [1] deals with activated CD4^+ T cells (CD4^+/HLA-DR^+/CD38^+). As to the kind of experiment: Phase 2 study: activated CD4+ T cell numbers by flow cytometry. How it is done:
as §1, with “Individuals had HIV-1 RNA>5,000 copies/mL and CD4^+ T cell count>100 cells/mm^3.” left out
(§3) Analyses for cell populations (T cells and NK cells) were performed in real time by flow cytometry (CD4^+, CD8^+, CD38^+, and HLA-DR^+ for T cells, and CD16^+, CD45^+ and CD56^+ for NK cells). […] Immune activation markers measured by flow cytometry were performed in real time alongside CD4^+, CD8^+ and CD14^+ enumeration at HIV-NAT laboratory, Bangkok Thailand.

For assay [2], the system named is activated CD8^+ cell (CD8^+/HLA-DR^+/CD38^+). As to the kind of experiment: Phase 2 study: activated CD8+ T cell numbers by flow cytometry. To be noted: 200 mg BIT225 QD + ART vs placebo + ART, 12 weeks; ±29 SEM; P<0.01. How it is done: as §1, with “Individuals had HIV-1 RNA>5,000 copies/mL and CD4^+ T cell count>100 cells/mm^3.” left out
as §3

In another assay the test system is NK cells. As to the kind of experiment: Phase 2 study: NK cell numbers by flow cytometry. How it is done: as §1
There were two treatment cohorts. The first cohort received 100 mg capsule of BIT225 or placebo QD with ART for 12 weeks. Cohort 2 were given two 100 mg capsules BIT225 (200 mg BIT225) or placebo QD with ART. ART was 1 fixed dose combination tablet of Atripla.
Analyses for cell populations (T cells and NK cells) were performed in real time by flow cytometry (CD4^+, CD8^+, CD38^+, and HLA-DR^+ for T cells, and CD16^+, CD45^+ and CD56^+ for NK cells). ELISA assays were run for sCD163 and Th17 related cytokines. Immune activation markers measured by flow cytometry were performed in real time alongside CD4^+, CD8^+ and CD14^+ enumeration at HIV-NAT laboratory, Bangkok Thailand.

The test system of another assay is soluble CD163 (sCD163). The experiment in a line: Phase 2 study: plasma sCD163 by Macro163 ELISA. How it is done: as §1, §2
The macrophage and monocyte activation marker sCD163 was measured in plasma by Macro163™ ELISA (IQ Products, Groningen, The Netherlands).

The next assay concerns IL-21. The experiment in a line: Phase 2 study: plasma Th17 related cytokines (MSD U-Plex), IL-21. How it is done:
as §1, with “At the conclusion of the trial, patients remained on ART as per standard treatment protocols. HIV-1-infected subjects, males and females, aged 18 to 65 years inclusive, who were naive to ART were recruited. Individuals had HIV-1 RNA>5,000 copies/mL and CD4^+ T cell count>100 cells/mm^3.” left out
(§4) Th17 cells regulate other immune cells, specifically neutrophils and macrophages, by secreting a variety of cytokines in response to pathogens. Plasma samples were analysed to determine the level of the Th17 related cytokines (IL-21, IFN-γ, IL-1p, IL-6, IL-10, IL-17A, IL-17E/IL-25, IL-17F, IL-22, and TNF-α) during the 12 week treatment period using electro-chemiluminescence MSD U-Plex Biomarker Group Th17 (Human Combo 2) Human Multiplex Assay (MesoScaleDiscovery, MD, USA).

A further assay relates to IFN-γ. As to the kind of experiment: Phase 2 study: plasma Th17 related cytokines (MSD U-Plex), IFN-γ. How it is done:
as §1, with “At the conclusion of the trial, patients remained on ART as per standard treatment protocols. HIV-1-infected subjects, males and females, aged 18 to 65 years inclusive, who were naive to ART were recruited. Individuals had HIV-1 RNA>5,000 copies/mL and CD4^+ T cell count>100 cells/mm^3.” left out
as §4

A further assay deals with IL-6. As to the kind of experiment: Phase 2 study: plasma Th17 related cytokines (MSD U-Plex), IL-6. How it is done:
as §1, with “At the conclusion of the trial, patients remained on ART as per standard treatment protocols. HIV-1-infected subjects, males and females, aged 18 to 65 years inclusive, who were naive to ART were recruited. Individuals had HIV-1 RNA>5,000 copies/mL and CD4^+ T cell count>100 cells/mm^3.” left out
as §4

The subject of the next assay is IL-10. The experiment in a line: Phase 2 study: plasma Th17 related cytokines (MSD U-Plex), IL-10. The conditions noted are these: BIT225 cohort vs placebo (data not shown). How it is done: as §1, with “At the conclusion of the trial, patients remained on ART as per standard treatment protocols. HIV-1-infected subjects, males and females, aged 18 to 65 years inclusive, who were naive to ART were recruited. Individuals had HIV-1 RNA>5,000 copies/mL and CD4^+ T cell count>100 cells/mm^3.” left out
as §4

Consider one molecule from US20220409587A1, “METHODS OF TREATING HIV-1 INFECTION” (BIOTRON LIMITED, priority 2019, published 2022).

Where “and” joins values, the source holds several entries; their conditions need not be identical. Equal entries are not always repeated. Entries after “also recorded” stand apart in the source; their conditions may differ.

`Cn1cc(-c2cccc3cc(C(=O)NC(=N)N)ccc23)cn1` [BIT225, N-carbamimidoyl-5-(1-methylpyrazol-4-yl)naphthalene-2-carboxamide]: the “Plasma HIV-1 RNA decline versus placebo” value in the assay with HIV-1 is recorded as “declined in a similar manner”. For the same molecule, the “Time activated CD4+ T cells remained elevated” value in assay [1] (100 mg BIT225 QD + ART (data not shown)) was “approximately 50 days”. For the same molecule, in assay [1] (200 mg BIT225 QD + ART vs placebo + ART, 12 weeks), the “Change from baseline of activated CD4+ T cell numbers compared to placebo” value is “sustained delay in decline; also recorded: statistically significant delayed reduction”. Further, in assay [2], the “Estimated average difference in activated CD8+ T cells, BIT225 cohort versus placebo (two-factor linear model)” value is reported as 85 cells/ml. Moreover, the “Estimated average difference in NK cells, BIT225 cohort versus placebo (two-factor linear model)” value with NK cells (200 mg BIT225 QD + ART vs placebo + ART, 12 weeks, SEM, P<0.01) was 71 cells/ml and 71±23 cells/ml. Further, the “Time to peak of NK cell numbers after commencing treatment” value with NK cells (BIT225 + ART) lay in the range of 24 to 48 h. Also, the “NK cell numbers during treatment versus placebo” value in the assay with NK cells (BIT225 + ART, 12-week treatment) is “remained higher”. For the same molecule, the “Linear model estimate β1 of larger overall decrease in sCD163 for BIT225 versus placebo” value in the assay with soluble CD163 (sCD163) (200 mg BIT225 QD + ART vs placebo + ART, 12 weeks, ±SE, P=0.036) was 208 ± 99 ng/mL. In addition, in the assay with soluble CD163 (sCD163) (BIT225 + ART vs ART + placebo), the “sCD163 over 12 weeks compared to ART alone” value was “significantly reduced; also recorded: statistically significant decline”. In addition, in the assay on IL-21 (200 mg BIT225 QD + ART vs placebo + ART, P=0.02), the “Plasma IL-21 versus placebo over the first 3 weeks (ANOVA)” value is on record as “statistically significant increase; also recorded: statistically significantly increased”. For the same molecule, the “Time of peak plasma IL-21” value in the assay with IL-21 (BIT225 + ART) turned out to be 3 week. Also, the “Subjects with IFN-γ transient spike” value with IFN-γ (BIT225 cohort (data not shown)) is given as 16 of 18. Besides, the “IFN-γ cohort mean response” value with IFN-γ (BIT225 cohort + ART) was “transient spike at Day 14”. In the assay with IL-6 (BIT225 + ART), the “Subjects with transient spike of plasma IL-6 in first 3 weeks” value is on record as 8 of 18. In addition, the “IL-6 response after 3 weeks, change from baseline (Log10)” value in the assay with IL-6 (BIT225 cohort vs placebo (data not shown)) is “remained higher than placebo”. Further, the “IL-10 levels versus placebo over 12 weeks” value in the assay with IL-10 is recorded as “not statistically significant”.
